The text below walks through data of ChEMBL document CHEMBL6074668 (J Med Chem, 2024).

Activity calls are given as the source filed them. The calls are words filed in the database; no cut-off is given here.

Holding throughout (format): functional, cell-based
Assay [1] addresses T1, Kappa-type opioid receptor (Homo sapiens, UniProt P41145). Nature of the assay: Agonist activity at human kappa opioid receptor expressed in CHO-K1 cells assessed as inhibition of forskolin-stimulated cAMP accumulation by HitHunter assay based luminescence analysis. (In general: Changes in cAMP serve as a functional read-out for many G protein-coupled receptors.)
Assay [2] deals with T1, Kappa-type opioid receptor. As to the kind of experiment: Agonist activity at human kappa opioid receptor expressed in CHO-K1 cells assessed as inhibition of forskolin-stimulated cAMP accumulation by HitHunter assay based luminescence analysis relative to control.
The target in assay [3] is T2, Mu-type opioid receptor (Homo sapiens, UniProt P35372). As to the kind of experiment: Agonist activity at human mu opioid receptor expressed in CHO-K1 cells assessed as inhibition of forskolin-stimulated cAMP accumulation at 10 uM by HitHunter assay based luminescence analysis.
T2 sequence (P35372 whole entry): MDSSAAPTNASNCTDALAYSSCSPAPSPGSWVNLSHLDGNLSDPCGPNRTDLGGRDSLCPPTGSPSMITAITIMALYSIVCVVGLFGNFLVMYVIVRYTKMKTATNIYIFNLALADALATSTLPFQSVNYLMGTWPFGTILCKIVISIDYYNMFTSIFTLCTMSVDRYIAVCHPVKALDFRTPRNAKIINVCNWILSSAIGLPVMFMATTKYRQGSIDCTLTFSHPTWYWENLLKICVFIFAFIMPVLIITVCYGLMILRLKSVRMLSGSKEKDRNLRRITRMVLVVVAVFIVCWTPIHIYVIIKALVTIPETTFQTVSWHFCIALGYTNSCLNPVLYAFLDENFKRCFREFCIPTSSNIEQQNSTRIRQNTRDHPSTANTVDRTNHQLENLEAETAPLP
Assay [4] concerns the target T2, Mu-type opioid receptor. Nature of the assay: Agonist activity at human mu opioid receptor expressed in CHO-K1 cells assessed as inhibition of forskolin-stimulated cAMP accumulation by HitHunter assay based luminescence analysis relative to control.
The target of assay [5] is T1, Kappa-type opioid receptor. As to the kind of experiment: Agonist activity at human kappa opioid receptor expressed in CHO-K1 cells assessed as inhibition of forskolin-stimulated cAMP accumulation at 10 uM by HitHunter assay based luminescence analysis.
For assay [6], the target named is Delta-type opioid receptor (Homo sapiens) (UniProt P41143). Nature of the assay: Agonist activity at human delta opioid receptor expressed in CHO-K1 cells assessed as inhibition of forskolin-stimulated cAMP accumulation at <1 uM by HitHunter assay based luminescence analysis.
Sequence of Delta-type opioid receptor (Homo sapiens) (P41143 whole entry): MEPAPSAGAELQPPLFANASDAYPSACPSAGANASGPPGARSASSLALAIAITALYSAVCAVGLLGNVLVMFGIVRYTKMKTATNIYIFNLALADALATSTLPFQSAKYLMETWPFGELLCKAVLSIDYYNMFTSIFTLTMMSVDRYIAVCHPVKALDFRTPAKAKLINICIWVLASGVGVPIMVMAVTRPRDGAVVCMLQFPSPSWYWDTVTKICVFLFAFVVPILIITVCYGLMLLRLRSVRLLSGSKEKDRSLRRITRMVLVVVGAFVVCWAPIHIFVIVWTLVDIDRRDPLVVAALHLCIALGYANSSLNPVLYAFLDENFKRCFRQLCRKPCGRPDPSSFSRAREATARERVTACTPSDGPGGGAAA

T1 sequence (P41145 whole entry): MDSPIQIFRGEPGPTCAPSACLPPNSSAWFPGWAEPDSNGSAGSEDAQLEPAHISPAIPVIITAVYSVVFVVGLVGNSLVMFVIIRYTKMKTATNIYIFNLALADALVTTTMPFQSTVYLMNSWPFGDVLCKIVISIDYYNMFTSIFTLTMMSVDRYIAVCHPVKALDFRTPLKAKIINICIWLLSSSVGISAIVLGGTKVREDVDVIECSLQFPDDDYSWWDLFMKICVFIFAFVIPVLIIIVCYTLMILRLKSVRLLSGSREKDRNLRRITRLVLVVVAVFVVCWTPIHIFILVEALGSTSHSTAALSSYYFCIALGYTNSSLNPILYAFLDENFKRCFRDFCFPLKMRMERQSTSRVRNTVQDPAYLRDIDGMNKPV

Regarding `C=CC[N+]12CC[C@]34C(=C(C(=O)OC)[C@@H](C[C@@H]31)/C(=C\C)C2)Nc1ccc(Br)cc14` (some centres not stated), the EC50 in assay [1] is 650 nM. In addition, the Emax in assay [2] (filed as agonist) was 100%; at Mu-type opioid receptor [4] it was below 10%. For the same compound, the result on Mu-type opioid receptor [3] was inactive.
For `C/C=C1/C[N+]2(CC3CC3)CC[C@]34C(=C(C(=O)OC)[C@H]1C[C@@H]32)Nc1ccccc14` (some centres not stated), in that order: 4700 nM, 113%, below 10% and “inactive”.
Turning to `C/C=C1/C[N+]2(Cc3ccccc3)CC[C@]34C(=C(C(=O)OC)[C@H]1C[C@@H]32)Nc1ccccc14` (some centres not stated), the outcome in assay [5] was inactive. The Emax in assay [2] was below 10%; on Mu-type opioid receptor [4] (filed as agonist), 112%.
In the case of `C/C=C1/CN2CC[C@]34c5ccccc5N[C@@H]3[C@H](C(=O)OC)[C@H]1C[C@H]24`, the outcome (in assay [5]; on Mu-type opioid receptor [3]) was inactive. The Emax (in assay [2]; on Mu-type opioid receptor [4]) was below 10% throughout.
Take `COC(=O)C1=C2Nc3ccccc3[C@@]23CCN2C[C@@](O)([C@@H](C)O)[C@@H]1C[C@H]23`: the outcome (in assay [5]; at Mu-type opioid receptor [3]) was inactive. Further, the Emax (in assay [2]; at Mu-type opioid receptor [4]) was below 10% in each case.
Consider `C[C@@H](NC(=O)[C@@H](N)Cc1ccc(O)cc1)C(=O)NCC(=O)N(C)[C@@H](Cc1ccccc1)C(=O)NCCO`, for which the result in assay [5] was inactive.
Consider `COC(=O)C1=C2Nc3ccccc3[C@@]23CCN2C[C@@](O)(C(C)=O)[C@@H]1C[C@H]23`, for which the outcome (in assay [5]; at Mu-type opioid receptor [3]) was inactive. In addition, the Emax (in assay [2]; at Mu-type opioid receptor [4]) was below 10% each time.
Take `C/C=C1/C[N+]2(CCC)CC[C@]34C(=C(C(=O)OC)[C@H]1C[C@@H]32)Nc1ccccc14` (some centres not stated): the result (in assay [5]; on Mu-type opioid receptor [3]) was inactive. The Emax (in assay [2]; on Mu-type opioid receptor [4]) was below 10% throughout.
In the case of `C/C=C1/CN2CC[C@]34c5cc(Br)ccc5NC3C(C(=O)OC)[C@H]1C[C@H]24` (some centres not stated), in assay [2] (filed as agonist), the Emax is 100%.
As for `CC[C@@H]1CN2CC[C@]34c5ccccc5N[C@@H]3[C@H](C(=O)OC)[C@H]1C[C@H]24`, the outcome (in assay [5]; at Mu-type opioid receptor [3]) was inactive. The maximum response (Emax) (in assay [2]; at Mu-type opioid receptor [4]) was below 10% in each case.
As to `C/C=C1/CN2CC[C@]34C(=C(C(=O)OC)[C@H]1C[C@H]23)Nc1ccc(-c2ccccc2)cc14`, the maximal response (Emax) in assay [2] (filed as agonist) is 101%; on Mu-type opioid receptor [4] (filed as agonist), 106%. In addition, the outcome in assay [6] was inactive.
As for `C=CC[N+]12CC[C@]34C(=C(C(=O)OC)[C@@H](C[C@@H]31)/C(=C\C)C2)Nc1ccccc14` (some centres not stated), the result (in assay [5]; on Mu-type opioid receptor [3]) was inactive. Moreover, the Emax (in assay [2]; on Mu-type opioid receptor [4]) was below 10% each time.
As for `CC[C@@H]1CN2CC[C@]34C(=C(C(=O)OC)[C@H]1C[C@H]23)Nc1ccccc14`, the EC50 in assay [1] is 1600 nM. In addition, the Emax in assay [2] (filed as agonist) was 99%; at Mu-type opioid receptor [4], below 10%. Also, the outcome on Mu-type opioid receptor [3] was inactive.
As for `C/C=C1/C[N+]2(CC3CC3)CC[C@]34C(=C(C(=O)OC)[C@H]1C[C@@H]32)Nc1ccc(Br)cc14` (some centres not stated), the Emax in assay [2] (filed as agonist) is 94%; on Mu-type opioid receptor [4] it was below 10%. In addition, the outcome at Mu-type opioid receptor [3] was inactive.
Turning to `C/C=C1/C[N+]2(C)CC[C@]34C(=C(C(=O)OC)[C@H]1C[C@@H]32)Nc1ccc(Br)cc14` (some centres not stated), the EC50 in assay [1] was determined as 940 nM. Moreover, the results for the Emax (in assay [2] (filed as agonist); at Mu-type opioid receptor [4]) were 102% and below 10%, respectively. At Mu-type opioid receptor [3], the result was inactive.
Turning to `C/C=C1/CN2CC[C@]34c5cc(I)ccc5NC3C(C(=O)OC)[C@H]1C[C@H]24` (some centres not stated), in assay [1], the EC50 is 24 nM. Also, the Emax in assay [2] (filed as agonist) was 100%; at Mu-type opioid receptor [4] it was below 10%. Moreover, the outcome (on Mu-type opioid receptor [3]; in assay [6]) was inactive.
In the case of `COC(=O)C1=C2Nc3ccc(Br)cc3[C@@]23CCN2C[C@@](O)([C@@H](C)O)[C@@H]1C[C@H]23`, the result (in assay [5]; on Mu-type opioid receptor [3]) was inactive. The Emax (in assay [2]; on Mu-type opioid receptor [4]) was below 10% throughout.
In the case of `C/C=C1/C[N+]2(C)CC[C@]34C(=C(C(=O)OC)[C@H]1C[C@@H]32)Nc1ccccc14` (some centres not stated), the result (in assay [5]; at Mu-type opioid receptor [3]) was inactive. The Emax (in assay [2]; at Mu-type opioid receptor [4]) was below 10% in each case.
Regarding `C/C=C1/CN2CC[C@]34C(=C(C(=O)OC)[C@H]1C[C@H]23)Nc1ccc(-c2ccsc2)cc14`, the Emax in assay [2] (filed as agonist) amounted to 104%; on Mu-type opioid receptor [4] (filed as agonist) it was 107%. The outcome in assay [6] was inactive.
For `C/C=C1/CN2CC[C@]34C(=C(C(=O)OC)[C@H]1C[C@H]23)Nc1ccc(C#N)cc14`, in assay [1], the EC50 is 81 nM. In addition, the Emax in assay [2] (filed as agonist) was 102%; at Mu-type opioid receptor [4] it was below 10%. Further, the outcome (at Mu-type opioid receptor [3]; in assay [6]) was inactive.

By EC50 is commonly meant the concentration giving half of the maximal effect. The term Emax denotes the greatest response seen or fitted, relative to the assay's reference.
